The term IC50 denotes the concentration that inhibits the measured activity by half. A high value points to weaker potency in that assay.

One assay relates to Plasmodium falciparum 3D7. The assay is described as follows: P. falciparum 3D7 asexual blood stage assay, Assay Procedure Version 2 (SYBR green readout). It counts as cell-based. To be noted: Plasmodium falciparum, 3D7, Erythrocyte, 72 h, Version 2 of the assay procedure (asterisk *); 72 h incubation in infected erythrocytes; 50,000 nM to 15 nM. How it is done: Asexual Blood Stage Assay
The assay used to measure the effect of test compounds on a bloodstream stage of Plasmodium falciparum 3D7 strain employs SYBR green as the readout. This is a dye that binds to double stranded deoxyribonucleic acid (DNA) with a resulting increase in fluorescence, allowing detection of P. falciparum DNA in infected erythrocytes, and thereby providing a measure of parasite growth and propagation.
P. falciparum Culture Maintenance
Erythrocytes (A+blood) were prepared for both parasite culture and assay by washing 4 times with incomplete media (15.9 g RPMI 1640 (25 mM HEPES, L-glutamine), 1 g NaHCO3, 2 g glucose, 400 μL gentacin (500 mg/mL), 2 mL hypoxanthine solution (13.6 g/L in 0.1M NaOH pH 7.3) in 1 litre of media). The cells were centrifuged at 1800 g for 5 minutes, before decanting the supernatant and re-suspending in fresh incomplete media. On the final wash, the cells were re-suspended in complete media (incomplete media with 5 g/L AlbumaxII), and centrifuged at 1800 g for 3 minutes. This cell sediment was treated as 100% haematocrit.
P. falciparum 3D7 was cultured in erythrocytes at 5% haematocrit in complete media at 37° C. (1% O2, 3% CO2, balance N2). Cultures were split on a weekly basis to achieve a 1% parasitaemia in erythrocites at 5% haematocrit in fresh media. Culture media is replaced by fresh media every other day (2 times during the week).
[formula] where A=% inhibition at bottom; B=% inhibition at top; C=EC50; D=slope; x=inhibitor concentration; and y=% inhibition. […] Assay Procedure—Version 2
On day 1, test compounds were added to assay plates using Echo dispensing technology ([…] and 20 points titration). 50 nL of each compound dilution was added to 50 μL of culture (5% haematocrit, 0.5% parasitaemia) and incubated for 72 h at 37° C. (1% O2, 3% CO2, balance N2). Final concentrations of test compounds ranged from 50,000 nM to 15 nM, in […].
On day 4, 10 μL SYBR green (Invitrogen S7563 supplied as 10,000× concentrate in DMSO) pre-diluted to 3× concentrate with Lysis buffer (20 mM Tris pH 7.9, 5% EDTA, 0.16% w/v, 1.6% TX100 v/v) was added to the cultures and incubated in the dark, overnight, at room temperature.
On day 5, fluorescent signal was measured using a BioTek plate reader (excitation 485 nm, emission 528 nm). All data were processed using IDBS ActivityBase. Raw data were converted into percent inhibition through linear regression by setting the high inhibition control (mefloquine) as 100% and the no inhibition control (DMSO) as 0%. Quality control criteria for passing plates were as follows: Z′>0.5, S:B>3, % CV(no inhibition control)<15. The formula used to calculate Z′ is:
[formula] where μ denotes the mean; σ denotes the standard deviation; p denotes the positive control; and n denotes the negative control.
All EC50 curve fitting was undertaken using the following bi-phasic two site dose response using XLfit model 300 (IDBS):
[formula] where A=100 minus the top of the upper curve 1 and the bottom of lower curve; B=Hill slope; log(C)=IC50 concentration at lower site; log(D)=IC50 concentration at upper site; x=inhibitor concentration; and y=% inhibition.
Compound `C[C@@]1(c2cccc(Nc3ccc(C(F)F)nc3C#N)c2Cl)CC(=O)N(C2CCOCC2)C(=N)N1` [Example 100, 3-{2-Chloro-3-[(4S)-2-imino-4-methyl-6-oxo-1-(tetrahydro-pyran-4-yl)hexahydropyrimidin-4-yl]anilino}-6-(difluoro-methyl)pyridine-2-carbonitrile] gave a 50% inhibitory concentration (IC50) of 347 nM.

Regarding `C[C@@]1(c2cccc(Nc3ccc(C#N)cc3OC(F)F)c2Cl)CC(=O)N(C2CCOCC2)C(=N)N1` [Example 96, 4-{2-Chloro-3-[(4S)-2-imino-4-methyl-6-oxo-1-(tetrahydro-pyran-4-yl)hexahydropyrimidin-4-yl]anilino}-3-(difluoro-methoxy)benzonitrile], half-maximal inhibition (IC50) required 195 nM. `Cn1ccc(Nc2cccc([C@]3(C)CC(=O)N(C4CCOCC4)C(=N)N3)c2Cl)cc1=O` [Example 73, (6S)-6-{2-Chloro-3-[(1-methyl-2-oxopyridin-4-yl)amino]-phenyl}-2-imino-6-methyl-3-(tetrahydropyran-4-yl)-hexahydropyrimidin-4-one] registered an IC50 of 10400 nM. Same read-out and setting: then `C[C@@]1(c2cccc(Nc3ccc(OC(F)F)nc3)c2Cl)CC(=O)N([C@H]2C[C@@](C)(O)C2)C(=N)N1` [Example 128, (6S)-6-(2-Chloro-3-{[6-(difluoromethoxy)pyridin-3-yl]-amino}phenyl)-3-(3-hydroxy-3-methylcyclobutyl)-2-imino-6-methylhexahydropyrimidin-4-one], with 717 nM. Same read-out and setting: then `C[C@@]1(c2cccc(Nc3cccc4ccccc34)c2Cl)CC(=O)N(C2CCOCC2)C(=N)N1` [Example 57, (6S)-6-[2-Chloro-3-(1-naphthyl-amino)phenyl]-2-imino-6-methyl-3-(tetrahydropyran-4-yl)hexahydropyrimidin-4-one], with 600 nM; and `C[C@@]1(c2cccc(Nc3ccccc3N=S(C)(C)=O)c2Cl)CC(=O)N(C2CCOCC2)C(=N)N1` [Example 109, (6S)-6-[2-Chloro-3-(2-{[dimethyl(oxo)-λ^6-sulfanylidene]amino}anilino)-phenyl]-2-imino-6-methyl-3-(tetrahydropyran-4-yl)-hexahydropyrimidin-4-one], with 814 nM; and `C[C@@]1(c2cccc(Nc3ccc4ncnn4c3)c2Cl)CC(=O)N(C2CCOCC2)C(=N)N1` [Example 85, (6S)-6-[2-Chloro-3-([1,2,4]-triazolo[1,5-a]pyridin-6-yl-amino)phenyl]-2-imino-6-methyl-3-(tetrahydropyran-4-yl)hexahydropyrimidin-4-one], with 1790 nM. In the case of `C[C@@]1(c2cccc(Nc3ccc(C4CC4)nn3)c2Cl)CC(=O)N(C2CCOCC2)C(=N)N1` [Example 197, (6S)-6-{2-Chloro-3-[(6-cyclo-propylpyridazin-3-yl)amino]-phenyl}-2-imino-6-methyl-3-(tetrahydropyran-4-yl)-hexahydropyrimidin-4-one], the IC50 was 536 nM. Still for that read-out and setting: then `C[C@@]1(c2cccc(Nc3ccc(C#N)cc3OC(F)F)c2Cl)CC(=O)N([C@H]2C[C@@](C)(O)C2)C(=N)N1` [Example 133, 4-{2-Chloro-3-[(4S)-1-(3-hydroxy-3-methylcyclobutyl)-2-imino-4-methyl-6-oxo-hexahydropyrimidin-4-yl]-anilino}-3-(difluoromethoxy)-benzonitrile], with 562 nM; and `C[C@@]1(c2cccc(Nc3ccc(N4CCC4)nc3)c2Cl)CC(=O)N(C2CCOCC2)C(=N)N1` [Example 113, (6S)-6-(3-{[6-(Azetidin-1-yl)-pyridin-3-yl]amino}-2-chloro-phenyl)-2-imino-6-methyl-3-(tetrahydropyran-4-yl)-hexahydropyrimidin-4-one], with 225 nM; and `C[C@@]1(c2cccc(Nc3cccc(Oc4ccccc4)c3)c2Cl)CC(=O)N(C2CCOCC2)C(=N)N1` [Example 75, (6S)-6-[2-Chloro-3-(3-phenoxy-anilino)phenyl]-2-imino-6-methyl-3-(tetrahydropyran-4-yl)hexahydropyrimidin-4-one], with 1460 nM. As for `CC(=O)N1CCc2cc(Nc3cccc([C@]4(C)CC(=O)N(C5CCOCC5)C(=N)N4)c3Cl)ccc21` [Example 65, (6S)-6-{3-[(1-Acetylindolin-5-yl)amino]-2-chlorophenyl}-2-imino-6-methyl-3-(tetrahydro-pyran-4-yl)hexahydropyrimidin-4-one], the IC50 came out at 458 nM.

In the case of `C[C@@]1(c2cccc(Nc3ccn4ccnc4c3)c2Cl)CC(=O)N(C2CCOCC2)C(=N)N1` [Example 108, (6S)-6-[2-Chloro-3-(imidazo-[1,2-a]pyridin-7-ylamino)-phenyl]-2-imino-6-methyl-3-(tetrahydropyran-4-yl)-hexahydropyrimidin-4-one], the IC50 is 2040 nM. The same measure, in the same setting: to `C[C@@]1(c2cccc(Nc3ccc(Cl)cn3)c2Cl)CC(=O)N(C2CCOCC2)C(=N)N1` [Example 182, (6S)-6-{2-Chloro-3-[(5-chloro-pyridin-2-yl)amino]phenyl}-2-imino-6-methyl-3-(tetrahydro-yran-4-yl)-hexahydropyrimidin-4-one] belongs 466 nM. Still for that read-out and setting: to `Cn1cc2cc(Nc3cccc([C@]4(C)CC(=O)N(C5CCOCC5)C(=N)N4)c3Cl)ccc2n1` [Example 78, (6S)-6-{2-Chloro-3-[(2-methyl-indazol-5-yl)amino]phenyl}-2-imino-6-methyl-3-(tetrahydro-pyran-4-yl)hexahydropyrimidin-4-one] belongs 1420 nM; to `C[C@@]1(c2cccc(Nc3ccc(F)cc3S(C)(=O)=O)c2Cl)CC(=O)N(C2CCOCC2)C(=N)N1` [Example 104, (6S)-6-{2-Chloro-3-[4-fluoro-2-(methylsulfonyl)anilino]-phenyl}-2-imino-6-methyl-3-(tetrahydropyran-4-yl)-hexahydropyrimidin-4-one], 131 nM.

The compound `Cc1ccc(Nc2cccc([C@]3(C)CC(=O)N([C@@H]4CCO[C@H](C)C4)C(=N)N3)c2Cl)cn1` (single isomer, unassigned) [Example 135] came in with an IC50 of 21 nM. In the case of `CC(C)(C)c1ccc(Nc2cccc([C@]3(C)CC(=O)N(C4CCOCC4)C(=N)N3)c2Cl)cn1` [Example 105, (6S)-6-{3-[(6-tert-Butylpyridin-3-yl)amino]-2-chlorophenyl}-2-imino-6-methyl-3-(tetrahydro-pyran-4-yl)hexahydropyrimidin-4-one], the midpoint of inhibition, the IC50, lay at 318 nM. `C[C@@]1(c2cccc(Nc3cc4ccccc4nc3OC(F)F)c2Cl)CC(=O)N(C2CCOCC2)C(=N)N1` [Example 98, (6S)-6-(2-Chloro-3-{[2-(difluoromethoxy)quinolin-3-yl]amino}phenyl)-2-imino-6-methyl-3-(tetrahydropyran-4-yl)hexahydropyrimidin-4-one] came in with an IC50 of 224 nM. Same read-out and setting: then `CC1(C)CC(N2C(=N)N[C@](C)(c3cccc(Nc4cnc(C5CC5)cn4)c3Cl)CC2=O)CCO1` (single isomer, unassigned) [Example 151, (6S)-6-{2-Chloro-3-[(5-cyclo-propylpyrazin-2-yl)amino]-phenyl}-3-[(4S*)-2,2-dimethyl-tetrahydropyran-4-yl]-2-imino-6-methylhexahydropyrimidin-4-one], with 707 nM; and `Cc1ncc(Nc2cccc([C@]3(C)CC(=O)N(C4CCOCC4)C(=N)N3)c2Cl)cc1C(F)(F)F` [Example 93, (6S)-6-(2-Chloro-3-{[6-methyl-5-(trifluoromethyl)pyridin-3-yl]-amino}phenyl)-2-imino-6-methyl-3-(tetrahydropyran-4-yl)hexahydropyrimidin-4-one], with 70 nM.

The same assay, now with this note: Version 2 of the assay procedure (asterisk *); 72 h incubation in infected erythrocytes; 50,000 nM to 15 nM.
As to `Cc1ccc(Nc2cccc([C@]3(C)CC(=O)N(C4CCOC(C)(C)C4)C(=N)N3)c2Cl)cn1` (single isomer, unassigned) [Example 145, (6S)-6-{2-Chloro-3-[(6-methyl-pyridin-3-yl)amino]phenyl}-3-[(4R*)-2,2-dimethyltetrahydro-pyran-4-yl]-2-imino-6-methyl-hexahydropyrimidin-4-one], the IC50 worked out at 1260 nM.

The values above are taken from patent US11479546B2, “Antimalarial hexahydropyrimidine analogues” (UCB Biopharma SRL, priority 2018, dated 2022).
